Assays:
potassium arsenate = compound: O=[As]([O-])(O)O.[K+] [potassium arsenate]; experiment: thermal stability z-score vs DMSO; higher = more thermally stabilized by treatment; settings: HeLa; arsenate concentration 1 mM
Protocol: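 Cellular thermal proteome profiling in HeLa cells treated with 1 mM arsenate for 1 h (DMSO pretreatment), heated to ten temperatures (37-66.3 °C). Soluble protein was quantified by TMT mass spectrometry relative to DMSO controls; the thermal stability score was transformed to a z-score; mean of n = 3 experiments.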

lipoamide = compound: NC(=O)CCCCC1CCSS1 [lipoamide]; experiment: as above; settings: HeLa, lipoamide concentration 100 µM
Protocol: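 Cellular thermal proteome profiling in HeLa cells. Cells were treated with 100 µM lipoamide for 1 h, with or without 1 mM arsenate for a further 1 h, then heated to ten temperatures (37-66.3 °C), and soluble protein was quantified by TMT mass spectrometry relative to 0.1% DMSO controls. The thermal stability score (sum of log2 fold changes minus the abundance score) was transformed to a z-score; mean of n = 3 experiments.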

[1] = arsenate co-treatment: 1 mM arsenate 1 h
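Further: each temperature applied for 3 min, abundance score taken as mean log2 fold change at the two lowest temperatures, z-score obtained by mean subtraction and division by SD.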

UniProt Q96FW1, sequence (Q96FW1 whole entry): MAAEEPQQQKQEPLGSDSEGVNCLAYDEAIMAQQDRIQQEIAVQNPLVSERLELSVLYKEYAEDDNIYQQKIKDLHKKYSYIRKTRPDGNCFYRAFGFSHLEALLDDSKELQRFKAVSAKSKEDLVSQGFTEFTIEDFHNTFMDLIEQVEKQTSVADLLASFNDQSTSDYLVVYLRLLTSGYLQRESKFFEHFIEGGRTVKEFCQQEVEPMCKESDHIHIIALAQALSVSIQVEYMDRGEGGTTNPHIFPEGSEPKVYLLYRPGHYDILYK
UniProt Q8TB37, sequence (Q8TB37 whole entry): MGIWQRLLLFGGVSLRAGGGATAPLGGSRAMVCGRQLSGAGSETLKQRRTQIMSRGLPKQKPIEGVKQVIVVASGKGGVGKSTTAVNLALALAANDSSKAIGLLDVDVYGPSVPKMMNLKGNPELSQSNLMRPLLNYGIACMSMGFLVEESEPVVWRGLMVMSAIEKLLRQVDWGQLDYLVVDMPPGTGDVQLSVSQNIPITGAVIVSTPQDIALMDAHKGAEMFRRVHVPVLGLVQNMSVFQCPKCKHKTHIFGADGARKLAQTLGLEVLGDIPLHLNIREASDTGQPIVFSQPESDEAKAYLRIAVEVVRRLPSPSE
UniProt Q9H0L4, sequence (Q9H0L4 whole entry): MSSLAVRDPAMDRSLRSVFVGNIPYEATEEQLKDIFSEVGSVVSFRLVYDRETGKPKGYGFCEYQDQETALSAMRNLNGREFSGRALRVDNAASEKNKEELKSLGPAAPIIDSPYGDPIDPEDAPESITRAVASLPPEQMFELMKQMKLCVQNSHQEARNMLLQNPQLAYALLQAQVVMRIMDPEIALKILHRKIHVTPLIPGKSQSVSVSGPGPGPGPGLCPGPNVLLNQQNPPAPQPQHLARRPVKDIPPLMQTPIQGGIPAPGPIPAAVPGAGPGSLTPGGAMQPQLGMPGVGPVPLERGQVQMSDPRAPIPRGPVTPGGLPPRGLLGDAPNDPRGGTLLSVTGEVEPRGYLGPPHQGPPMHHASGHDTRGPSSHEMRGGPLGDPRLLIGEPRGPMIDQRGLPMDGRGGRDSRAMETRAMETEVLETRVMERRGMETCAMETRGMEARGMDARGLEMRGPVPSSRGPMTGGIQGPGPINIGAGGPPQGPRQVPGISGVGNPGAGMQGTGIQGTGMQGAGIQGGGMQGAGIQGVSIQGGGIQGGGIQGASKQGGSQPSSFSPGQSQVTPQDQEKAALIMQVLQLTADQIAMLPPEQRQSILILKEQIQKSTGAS
UniProt O75934, sequence (O75934 whole entry): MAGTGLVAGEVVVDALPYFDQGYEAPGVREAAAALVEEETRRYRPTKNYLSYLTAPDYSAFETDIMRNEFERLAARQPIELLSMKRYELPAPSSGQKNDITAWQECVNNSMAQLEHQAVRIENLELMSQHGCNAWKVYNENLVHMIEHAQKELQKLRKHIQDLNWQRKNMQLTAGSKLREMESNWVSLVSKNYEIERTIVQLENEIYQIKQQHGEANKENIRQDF
UniProt Q8IWT0, sequence (Q8IWT0 whole entry): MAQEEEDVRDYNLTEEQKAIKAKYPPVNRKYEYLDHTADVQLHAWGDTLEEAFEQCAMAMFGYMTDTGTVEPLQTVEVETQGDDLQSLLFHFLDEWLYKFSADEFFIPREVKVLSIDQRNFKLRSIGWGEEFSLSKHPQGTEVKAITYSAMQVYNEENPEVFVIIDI
UniProt O75494, sequence (O75494 whole entry): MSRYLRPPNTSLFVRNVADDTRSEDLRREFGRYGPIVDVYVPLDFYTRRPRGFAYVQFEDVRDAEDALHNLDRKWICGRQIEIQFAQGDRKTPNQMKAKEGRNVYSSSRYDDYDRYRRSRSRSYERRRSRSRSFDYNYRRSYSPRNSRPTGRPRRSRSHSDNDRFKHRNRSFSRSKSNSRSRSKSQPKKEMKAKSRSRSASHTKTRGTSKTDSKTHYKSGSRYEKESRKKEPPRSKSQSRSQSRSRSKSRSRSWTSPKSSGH
UniProt Q9Y316, sequence (Q9Y316 whole entry): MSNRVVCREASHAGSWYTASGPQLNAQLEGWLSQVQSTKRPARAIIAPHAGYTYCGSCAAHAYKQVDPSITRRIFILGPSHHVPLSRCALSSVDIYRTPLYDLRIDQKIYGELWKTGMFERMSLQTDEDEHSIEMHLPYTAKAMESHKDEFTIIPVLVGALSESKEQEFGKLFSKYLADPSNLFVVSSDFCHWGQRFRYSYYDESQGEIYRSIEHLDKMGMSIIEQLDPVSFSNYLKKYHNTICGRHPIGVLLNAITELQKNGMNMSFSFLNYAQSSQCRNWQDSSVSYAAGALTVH
UniProt Q14011, sequence (Q14011 whole entry): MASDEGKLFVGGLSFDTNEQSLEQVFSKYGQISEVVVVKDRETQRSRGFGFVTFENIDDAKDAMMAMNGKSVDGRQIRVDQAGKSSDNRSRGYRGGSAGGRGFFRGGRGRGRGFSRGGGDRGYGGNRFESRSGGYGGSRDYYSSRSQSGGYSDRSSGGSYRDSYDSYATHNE
UniProt P49427, sequence (P49427 whole entry): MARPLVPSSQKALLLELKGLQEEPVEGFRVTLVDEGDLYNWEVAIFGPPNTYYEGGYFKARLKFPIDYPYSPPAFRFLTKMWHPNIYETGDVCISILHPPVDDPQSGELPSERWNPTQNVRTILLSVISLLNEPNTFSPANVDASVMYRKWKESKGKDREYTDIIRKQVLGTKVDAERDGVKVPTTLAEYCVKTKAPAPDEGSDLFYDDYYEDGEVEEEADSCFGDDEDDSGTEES
UniProt Q969E2, sequence (Q969E2 whole entry): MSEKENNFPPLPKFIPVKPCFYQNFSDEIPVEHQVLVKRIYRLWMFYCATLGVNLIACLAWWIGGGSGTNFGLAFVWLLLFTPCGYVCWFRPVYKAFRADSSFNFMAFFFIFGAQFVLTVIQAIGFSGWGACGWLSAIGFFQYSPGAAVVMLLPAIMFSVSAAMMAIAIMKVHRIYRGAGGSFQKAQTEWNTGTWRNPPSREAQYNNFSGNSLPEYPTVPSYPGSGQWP
UniProt Q92733, sequence (Q92733 whole entry): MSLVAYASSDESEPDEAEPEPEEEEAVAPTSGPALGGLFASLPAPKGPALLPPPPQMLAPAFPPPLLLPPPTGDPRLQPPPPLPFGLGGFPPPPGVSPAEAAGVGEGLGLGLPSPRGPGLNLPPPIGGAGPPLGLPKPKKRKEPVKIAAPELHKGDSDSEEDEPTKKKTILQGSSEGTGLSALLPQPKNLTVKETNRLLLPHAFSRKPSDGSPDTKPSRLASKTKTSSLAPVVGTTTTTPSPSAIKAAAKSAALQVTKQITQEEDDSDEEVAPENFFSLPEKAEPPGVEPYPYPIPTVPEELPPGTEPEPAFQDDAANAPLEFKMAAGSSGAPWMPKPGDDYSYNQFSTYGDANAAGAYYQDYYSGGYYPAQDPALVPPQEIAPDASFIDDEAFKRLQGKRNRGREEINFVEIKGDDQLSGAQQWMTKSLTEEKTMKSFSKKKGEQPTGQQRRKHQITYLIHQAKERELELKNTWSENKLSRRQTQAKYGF
UniProt Q6NUT3, sequence (Q6NUT3 whole entry): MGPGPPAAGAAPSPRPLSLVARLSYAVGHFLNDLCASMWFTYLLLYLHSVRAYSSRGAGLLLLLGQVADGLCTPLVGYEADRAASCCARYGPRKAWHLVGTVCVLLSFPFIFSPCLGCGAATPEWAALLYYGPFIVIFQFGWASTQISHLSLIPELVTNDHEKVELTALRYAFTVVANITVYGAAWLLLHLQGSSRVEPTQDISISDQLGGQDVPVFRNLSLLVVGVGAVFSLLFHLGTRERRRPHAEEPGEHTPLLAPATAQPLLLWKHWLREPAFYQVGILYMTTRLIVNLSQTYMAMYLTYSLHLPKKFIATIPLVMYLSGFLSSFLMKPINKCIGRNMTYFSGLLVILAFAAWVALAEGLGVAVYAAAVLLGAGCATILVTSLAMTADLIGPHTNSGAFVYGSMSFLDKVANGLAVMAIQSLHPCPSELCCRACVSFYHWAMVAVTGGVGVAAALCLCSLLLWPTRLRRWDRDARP
UniProt Q9Y617, sequence (Q9Y617 whole entry): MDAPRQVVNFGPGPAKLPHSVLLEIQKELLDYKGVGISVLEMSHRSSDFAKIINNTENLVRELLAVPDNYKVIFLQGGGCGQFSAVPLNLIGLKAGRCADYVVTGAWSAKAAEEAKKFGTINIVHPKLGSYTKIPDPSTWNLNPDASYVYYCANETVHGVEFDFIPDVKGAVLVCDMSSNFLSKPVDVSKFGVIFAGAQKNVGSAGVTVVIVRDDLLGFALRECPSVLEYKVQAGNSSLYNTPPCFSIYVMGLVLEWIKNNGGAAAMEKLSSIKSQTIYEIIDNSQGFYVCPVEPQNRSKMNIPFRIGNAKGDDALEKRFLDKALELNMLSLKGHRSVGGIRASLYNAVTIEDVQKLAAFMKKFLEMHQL
UniProt Q14134, sequence (Q14134 whole entry): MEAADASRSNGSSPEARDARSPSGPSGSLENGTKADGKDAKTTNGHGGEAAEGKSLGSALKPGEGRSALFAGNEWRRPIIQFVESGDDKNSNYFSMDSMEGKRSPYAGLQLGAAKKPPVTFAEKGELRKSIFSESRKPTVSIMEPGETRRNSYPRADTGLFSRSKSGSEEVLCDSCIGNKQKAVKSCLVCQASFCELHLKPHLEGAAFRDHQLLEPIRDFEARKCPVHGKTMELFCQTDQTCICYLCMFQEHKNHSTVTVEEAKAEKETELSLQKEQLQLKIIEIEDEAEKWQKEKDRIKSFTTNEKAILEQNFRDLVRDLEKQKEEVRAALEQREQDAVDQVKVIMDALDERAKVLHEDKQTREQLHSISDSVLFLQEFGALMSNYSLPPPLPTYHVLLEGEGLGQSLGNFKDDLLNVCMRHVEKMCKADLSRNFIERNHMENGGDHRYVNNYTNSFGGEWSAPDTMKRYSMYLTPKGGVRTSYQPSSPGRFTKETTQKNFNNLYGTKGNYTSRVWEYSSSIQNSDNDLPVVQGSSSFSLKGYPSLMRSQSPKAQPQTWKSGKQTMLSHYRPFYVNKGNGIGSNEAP
UniProt P56556, sequence (P56556 whole entry): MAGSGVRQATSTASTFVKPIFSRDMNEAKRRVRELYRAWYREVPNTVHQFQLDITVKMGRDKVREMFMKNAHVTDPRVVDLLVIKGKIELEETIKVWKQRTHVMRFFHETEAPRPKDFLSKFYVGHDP

Target | thermal stability z-score (potassium arsenate) | thermal stability z-score (lipoamide; [1]) | thermal stability z-score (lipoamide; arsenate co-treatment: none)
TIMM23 (UniProt O14925) | 0.0795 | 0.248 | -0.124
ACOX1 (UniProt Q15067) | 0.389 | 0.516 | 0.379
SCFD2 (UniProt Q8WU76) | 0.043 | 0.0156 | -0.09
LSM5 (UniProt Q9Y4Y9) | -1.23 | -0.69 | 0.0925
TK1 (UniProt P04183) | -0.307 | 0.233 | 0.418
CSTF2T (UniProt Q9H0L4) | 0.141 | 0.0672 | -0.0883
EDIL3 (UniProt O43854) | 1.14 | -0.15 | -0.528
MEMO1 (UniProt Q9Y316) | 0.0822 | 0.326 | 0.0877
RPS15 (UniProt P62841) | -0.957 | 0.148 | 0.282
XRN2 (UniProt Q9H0D6) | -0.818 | 0.575 | 0.495
COG4 (UniProt Q9H9E3) | -0.419 | -0.919 | -1.44
NDUFA6 (UniProt P56556) | 0.505 | -0.164 | -0.00891
CFAP97 (UniProt Q9P2B7) | -0.864 | -1 | -0.518
WDR73 (UniProt Q6P4I2) | -0.351 | 0.0525 | -0.0893
PPP2CA (UniProt P67775) | -1.92 | 0.297 | 0.0726
IMP3 (UniProt Q9NV31) | 0.389 | -0.323 | -0.228
MARCH6 (UniProt O60337) | -0.855 | -0.245 | -0.44
PPFIA1 (UniProt Q13136) | 0.263 | -0.28 | -0.239
PKP3 (UniProt Q9Y446) | 0.191 | -0.116 | 0.603
GLT8D1 (UniProt Q68CQ7) | 0.145 | -0.426 | -0.593
NUDCD3 (UniProt Q8IVD9) | 0.339 | -0.592 | -0.183
NUBPL (UniProt Q8TB37) | -0.262 | -0.216 | -0.498
TTC13 (UniProt Q8NBP0) | 0.595 | -0.787 | -1.08
CINP (UniProt Q9BW66) | 0.256 | -0.0967 | -0.169
WDYHV1 (UniProt Q96HA8) | -0.625 | 0.206 | 0.157
SPCS3 (UniProt P61009) | 0.879 | -1.66 | -1.75
ZMAT2 (UniProt Q96NC0) | -1.13 | -0.00196 | -0.398
BCAS2 (UniProt O75934) | 0.558 | 0.913 | 0.747

Target | thermal stability z-score (potassium arsenate) | thermal stability z-score (lipoamide; [1]) | thermal stability z-score (lipoamide; arsenate co-treatment: none)
ESF1 (UniProt Q9H501) | 0.24 | 0.105 | 0.129
CIRBP (UniProt Q14011) | -0.194 | 0.435 | -0.192
RPS8 (UniProt P62241) | -0.848 | 0.378 | 0.0867
PRCC (UniProt Q92733) | 0.465 | 0.409 | -0.0293
PSAT1 (UniProt Q9Y617) | -0.653 | 0.659 | 0.402
EWSR1 (UniProt Q01844) | -0.604 | 0.0495 | 0.235
SRSF10 (UniProt O75494) | 2.99 | 1.16 | 0.452
SCAMP4 (UniProt Q969E2) | 0.0173 | 0.196 | 0.377
NUDT1 (UniProt P36639) | -0.00492 | 0.505 | 0.0984
STIP1 (UniProt P31948) | -0.157 | 0.275 | 0.371
SWAP70 (UniProt Q9UH65) | 0.3 | -0.295 | 0.217
POLA1 (UniProt P09884) | -0.306 | -0.387 | 0.167
C9ORF64 (UniProt Q5T6V5) | -0.254 | -0.191 | 0.121
OTUB1 (UniProt Q96FW1) | -0.468 | 0.513 | 0.823
OSTF1 (UniProt Q92882) | 0.00115 | -0.217 | 0.551
QRSL1 (UniProt Q9H0R6) | 0.708 | -0.401 | -2.57
MOCS2 | -0.289 | 0.00471 | 0.303
CDC34 (UniProt P49427) | 0.0868 | -0.142 | -0.0805
GLB1 (UniProt P16278) | -0.438 | -0.564 | -0.0527
CTTN (UniProt Q14247) | 0.2 | 0.536 | 0.451
ZBTB8OS (UniProt Q8IWT0) | -1.01 | -0.245 | 0.591
TSSC1 (UniProt Q53HC9) | -0.25 | 0.436 | -0.204
COA7 (UniProt Q96BR5) | -0.364 | 0.203 | 0.0661
TRIM29 (UniProt Q14134) | -0.177 | -0.0886 | 0.185
TP53BP2 (UniProt Q13625) | -1.29 | -1.06 | 0.188
CLASP2 (UniProt O75122) | 0.0564 | -0.0563 | -0.198
MFSD12 (UniProt Q6NUT3) | 1.14 | -0.485 | -1.79

Source: the supplement of paper PMC12463676, “Small-molecule dissolution of stress granules by redox modulation benefits ALS models” (Nature Chemical Biology, 2025)
